{
  "source": "ChEMBL document CHEMBL4813989",
  "about": "“Design, synthesis, and biological evaluation of nitroisoxazole-containing spiro[pyrrolidin-oxindole] derivatives as novel glutathione peroxidase 4/mouse double minute 2 dual inhibitors that inhibit breast adenocarcinoma cell proliferation” (Eur J Med Chem, 2021)",
  "key": {"MCF7 [1]": {"system": "MCF7", "assay": "Induction of apoptosis in human MCF7 cells assessed as increase in cleaved caspase-9 level at 2 uM incubated for 48 hrs by Western blot analysis", "assay_type": "functional, cell-based"}, "[2]": {"target": "T1, E3 ubiquitin-protein ligase Mdm2 (Homo sapiens, UniProt Q00987)", "assay": "Inhibition of MDM2 in human MCF7 cells assessed as increase in p53 accumulation at 0.5 to 2 uM incubated for 48 hrs by Western blot analysis", "assay_type": "cell-based", "conditions": "dose 0.5-2 µM"}, "[3]": {"target": "T2, Phospholipid hydroperoxide glutathione peroxidase GPX4 (Homo sapiens) (UniProt P36969)", "T2 sequence (whole entry)": "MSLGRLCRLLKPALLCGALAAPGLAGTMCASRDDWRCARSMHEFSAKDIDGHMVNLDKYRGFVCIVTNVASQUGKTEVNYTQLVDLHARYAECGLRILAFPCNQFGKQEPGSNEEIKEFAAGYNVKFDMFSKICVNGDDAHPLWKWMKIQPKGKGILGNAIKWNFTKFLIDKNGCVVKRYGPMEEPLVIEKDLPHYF", "assay": "Binding affinity in GPX4 in human MCF7 cells assessed as increase in stability in 60 and 65 degreeC at 100 uM by cellular thermal shift assay", "assay_type": "cell-based"}, "[4]": {"target": "T1, E3 ubiquitin-protein ligase Mdm2", "assay": "Inhibition of MDM2 (unknown origin) using peptide as substrate incubated for 30 mins by fluorescence polarization assay"}, "MCF-10A": {"system": "MCF-10A", "assay": "Cytotoxicity against human MCF-10A cells assessed as reduction in cell viability incubated for 48 hrs by CCK8 assay", "assay_type": "cell-based"}, "MCF7 [5]": {"system": "MCF7", "assay": "Antiproliferative activity against human MCF7 cells assessed as reduction in cell growth incubated for 48 hrs by CCK8 assay", "conditions": "MCF7, 48 h"}, "MCF7 [6]": {"system": "MCF7", "assay": "Antiproliferative activity against human MCF7 cells assessed as reduction in cell growth incubated for 48 hrs in presence of Fer-1 by CCK8 assay", "conditions": "MCF7, 48 h"}, "[7]": {"target": "T1, E3 ubiquitin-protein ligase Mdm2", "assay": "Inhibition of MDM2 in human MCF7 cells assessed as increase in MDM2 accumulation at 0.5 to 2 uM incubated for 48 hrs by Western blot analysis", "assay_type": "cell-based", "conditions": "dose 0.5-2 µM"}, "[8]": {"target": "T2, Phospholipid hydroperoxide glutathione peroxidase GPX4 (Homo sapiens)", "assay": "Inhibition of GPX4 in human MCF7 cells assessed as increase in GPX4 degradation incubated for 48 hrs by Western blot analysis", "assay_type": "cell-based", "conditions": "dose 0.1-2 µM"}, "MCF7 [9]": {"system": "MCF7", "assay": "Induction of apoptosis in human MCF7 cells assessed as viable cells at 0.1 uM incubated for 48 hrs by annexin-V-FITC and PI staining based flow cytometry analysis (reference value: 93.1 %)", "assay_type": "functional", "conditions": "read-out: Activity"}, "MCF7 [10]": {"system": "MCF7", "assay": "Induction of apoptosis in human MCF7 cells assessed as early apoptotic cells at 0.1 uM incubated for 48 hrs by annexin-V-FITC and PI staining based flow cytometry analysis (reference value: 1.05 %)", "assay_type": "functional"}, "MCF7 [11]": {"system": "MCF7", "assay": "Induction of apoptosis in human MCF7 cells assessed as late apoptotic cells at 0.1 uM incubated for 48 hrs by annexin-V-FITC and PI staining based flow cytometry analysis (reference value: 2.61 %)", "assay_type": "functional"}, "MCF7 [12]": {"system": "MCF7", "assay": "Induction of apoptosis in human MCF7 cells assessed as necrotic cells at 0.1 uM incubated for 48 hrs by annexin-V-FITC and PI staining based flow cytometry analysis (reference value: 3.21 %)", "assay_type": "functional"}, "MCF7 [13]": {"system": "MCF7", "assay": "Induction of apoptosis in human MCF7 cells assessed as viable cells at 0.5 uM incubated for 48 hrs by annexin-V-FITC and PI staining based flow cytometry analysis (reference value: 93.1 %)", "assay_type": "functional", "conditions": "read-out: Activity"}, "MCF7 [14]": {"system": "MCF7", "assay": "Induction of apoptosis in human MCF7 cells assessed as early apoptotic cells at 0.5 uM incubated for 48 hrs by annexin-V-FITC and PI staining based flow cytometry analysis (reference value: 1.05 %)", "assay_type": "functional"}, "MCF7 [15]": {"system": "MCF7", "assay": "Induction of apoptosis in human MCF7 cells assessed as late apoptotic cells at 0.5 uM incubated for 48 hrs by annexin-V-FITC and PI staining based flow cytometry analysis (reference value: 2.61 %)", "assay_type": "functional"}, "MCF7 [16]": {"system": "MCF7", "assay": "Induction of apoptosis in human MCF7 cells assessed as necrotic cells at 0.5 uM incubated for 48 hrs by annexin-V-FITC and PI staining based flow cytometry analysis (reference value: 3.21 %)", "assay_type": "functional"}, "MCF7 [17]": {"system": "MCF7", "assay": "Induction of apoptosis in human MCF7 cells assessed as viable cells at 1 uM incubated for 48 hrs by annexin-V-FITC and PI staining based flow cytometry analysis (reference value: 93.1 %)", "assay_type": "functional", "conditions": "read-out: Activity"}, "MCF7 [18]": {"system": "MCF7", "assay": "Induction of apoptosis in human MCF7 cells assessed as early apoptotic cells at 1 uM incubated for 48 hrs by annexin-V-FITC and PI staining based flow cytometry analysis (reference value: 1.05 %)", "assay_type": "functional"}, "MCF7 [19]": {"system": "MCF7", "assay": "Induction of apoptosis in human MCF7 cells assessed as late apoptotic cells at 1 uM incubated for 48 hrs by annexin-V-FITC and PI staining based flow cytometry analysis (reference value: 2.61 %)", "assay_type": "functional"}, "MCF7 [20]": {"system": "MCF7", "assay": "Induction of apoptosis in human MCF7 cells assessed as necrotic cells at 1 uM incubated for 48 hrs by annexin-V-FITC and PI staining based flow cytometry analysis (reference value: 3.21 %)", "assay_type": "functional"}, "MCF7 [21]": {"system": "MCF7", "assay": "Induction of apoptosis in human MCF7 cells assessed as viable cells at 1 uM incubated for 48 hrs in presence of Fer-1 by annexin-V-FITC and PI staining based flow cytometry analysis (reference value: 93.1 %)", "assay_type": "functional", "conditions": "read-out: Activity"}, "MCF7 [22]": {"system": "MCF7", "assay": "Induction of apoptosis in human MCF7 cells assessed as early apoptotic cells at 1 uM incubated for 48 hrs in presence of Fer-1 by annexin-V-FITC and PI staining based flow cytometry analysis (reference value: 1.05 %)", "assay_type": "functional"}, "MCF7 [23]": {"system": "MCF7", "assay": "Induction of apoptosis in human MCF7 cells assessed as necrotic cells at 1 uM incubated for 48 hrs in presence of Fer-1 by annexin-V-FITC and PI staining based flow cytometry analysis (reference value: 3.21 %)", "assay_type": "functional"}, "MCF7 [24]": {"system": "MCF7", "assay": "Induction of ROS production in human MCF7 cells at 1 uM by DCFH-DA assay", "assay_type": "functional, cell-based"}, "MCF7 [25]": {"system": "MCF7", "assay": "Induction of LPO production in human MCF7 cells at 1 uM by C11-BODIPY staining based confocal laser scanning microscopic analysis", "assay_type": "functional, cell-based"}, "MCF7 [26]": {"system": "MCF7", "assay": "Induction of ROS production in human MCF7 cells at 1 uM in presence of Fer-1 by DCFH-DA assay", "assay_type": "functional, cell-based"}, "MCF7 [27]": {"system": "MCF7", "assay": "Induction of LPO production in human MCF7 cells at 1 uM in presence of Fer-1 by C11-BODIPY staining based confocal laser scanning microscopic analysis", "assay_type": "functional, cell-based"}, "MCF7 [28]": {"system": "MCF7", "assay": "Antitumor activity against human MCF7 cells xenografted in BALB/c mouse assessed as tumor growth inhibition at 25 to 50 mg/kg, ip administered once for 17 days", "assay_type": "functional, organism-based", "conditions": "dose 25-50 mg/kg, time 17.0 day"}, "[29]": {"assay": "Toxicity in BALB/c mouse xenografted with human MCF7 cells assessed as effect on body weight at 25 to 50 mg/kg, ip administered once for 17 days", "assay_type": "organism-based", "conditions": "in vivo, 408 h, dose 25-50 mg/kg, time 17 day"}, "MCF7 [30]": {"system": "MCF7", "assay": "Antitumor activity against human MCF7 cells xenografted in BALB/c mouse assessed as reduction in Ki-67 expression at 25 to 50 mg/kg, ip administered once for 17 days by immunohistochemical analysis", "assay_type": "functional, organism-based", "conditions": "dose 25-50 mg/kg, time 17.0 day"}, "[31]": {"target": "E3 ubiquitin-protein ligase Mdm2 (Mus musculus) (UniProt P23804)", "sequence (P23804 whole entry)": "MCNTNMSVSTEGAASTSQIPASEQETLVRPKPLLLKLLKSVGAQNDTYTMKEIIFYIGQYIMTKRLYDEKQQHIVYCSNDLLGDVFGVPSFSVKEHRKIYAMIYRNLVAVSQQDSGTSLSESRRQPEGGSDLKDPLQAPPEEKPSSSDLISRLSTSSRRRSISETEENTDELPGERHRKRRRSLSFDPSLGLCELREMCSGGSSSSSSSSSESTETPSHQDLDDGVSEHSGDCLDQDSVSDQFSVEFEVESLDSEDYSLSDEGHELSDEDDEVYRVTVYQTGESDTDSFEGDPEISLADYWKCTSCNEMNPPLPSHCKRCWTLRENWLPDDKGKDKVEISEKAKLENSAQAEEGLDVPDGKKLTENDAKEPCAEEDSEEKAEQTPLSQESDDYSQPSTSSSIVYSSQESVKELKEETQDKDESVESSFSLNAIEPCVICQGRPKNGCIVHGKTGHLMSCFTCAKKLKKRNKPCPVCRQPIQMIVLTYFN", "assay": "In vivo inhibition of MDM2 in human MCF7 cells xenografted in BALB/c mouse assessed as increase in p53 expression at 25 to 50 mg/kg, ip administered once for 17 days by immunofluorescence analysis", "assay_type": "functional, organism-based", "conditions": "dose 25-50 mg/kg, time 17.0 day"}, "Mus musculus": {"system": "Mus musculus", "assay": "In vivo induction of apoptosis in human MCF7 cells xenografted in BALB/c mouse assessed as increase in TUNEL expression at 25 to 50 mg/kg, ip administered once for 17 days by immunohistochemical analysis", "assay_type": "functional, organism-based", "conditions": "dose 25-50 mg/kg, time 17.0 day"}, "MCF7 [32]": {"system": "MCF7", "assay": "Induction of apoptosis in human MCF7 cells assessed as late apoptotic cells at 1 uM incubated for 48 hrs in presence of Fer-1 by annexin-V-FITC and PI staining based flow cytometry analysis (reference value: […] %)", "assay_type": "functional"}},
  "note": "Activity calls are given as the source filed them. The calls are words filed in the database; no cut-off is given here.",
  "data": [
    {"molecule": "Cc1noc([C@@H]2[C@@H](c3ccccc3)[C@H](C(F)(F)F)N[C@@]23C(=O)Nc2cc(Cl)ccc23)c1[N+](=O)[O-]", "values": [
      {"measurement": "Activity", "setting": "MCF7 [1]", "value": "Active"},
      {"measurement": "inhibition", "setting": "[2]", "value": "Active"},
      {"measurement": "Activity", "setting": "[3]", "value": "Active"},
      {"measurement": "Ki", "setting": "[4]", "value": 240, "unit": "nM"},
      {"measurement": "Activity", "setting": "MCF-10A", "value": "Non-Toxic"},
      {"measurement": "IC50", "setting": "MCF7 [5]", "value": 120, "unit": "nM"},
      {"measurement": "IC50", "setting": "MCF7 [6]", "value": 13500, "unit": "nM"},
      {"measurement": "inhibition", "setting": "[7]", "value": "Active"},
      {"measurement": "inhibition", "setting": "[8]", "value": "Active"},
      {"measurement": "viability at 0.1 µM", "setting": "MCF7 [9]", "value": 91.3, "unit": "%"},
      {"measurement": "Activity", "setting": "MCF7 [10]", "value": 1.39, "unit": "%"},
      {"measurement": "Activity", "setting": "MCF7 [11]", "value": 2.85, "unit": "%"},
      {"measurement": "Activity", "setting": "MCF7 [12]", "value": 4.51, "unit": "%"},
      {"measurement": "viability at 0.5 µM", "setting": "MCF7 [13]", "value": 83.8, "unit": "%"},
      {"measurement": "Activity", "setting": "MCF7 [14]", "value": 7.81, "unit": "%"},
      {"measurement": "Activity", "setting": "MCF7 [15]", "value": 3.16, "unit": "%"},
      {"measurement": "Activity", "setting": "MCF7 [16]", "value": 5.25, "unit": "%"},
      {"measurement": "viability at 1 µM", "setting": "MCF7 [17]", "value": 81.2, "unit": "%"},
      {"measurement": "Activity", "setting": "MCF7 [18]", "value": 11.3, "unit": "%"},
      {"measurement": "Activity", "setting": "MCF7 [19]", "value": 4.91, "unit": "%"},
      {"measurement": "Activity", "setting": "MCF7 [20]", "value": 2.61, "unit": "%"},
      {"measurement": "viability at 1 µM", "setting": "MCF7 [21]", "value": 84, "unit": "%"},
      {"measurement": "Activity", "setting": "MCF7 [22]", "value": 7.98, "unit": "%"},
      {"measurement": "Activity", "setting": "MCF7 [23]", "value": 3.35, "unit": "%"},
      {"measurement": "Activity", "setting": "MCF7 [24]", "value": "Active"},
      {"measurement": "Activity", "setting": "MCF7 [25]", "value": "Active"},
      {"measurement": "Activity", "setting": "MCF7 [26]", "value": "inactive"},
      {"measurement": "Activity", "setting": "MCF7 [27]", "value": "inactive"},
      {"measurement": "TGI", "setting": "MCF7 [28]", "value": "Active"},
      {"measurement": "Activity", "setting": "[29]", "value": "Non-Toxic"},
      {"measurement": "Activity", "setting": "MCF7 [30]", "value": "Active"},
      {"measurement": "inhibition", "setting": "[31]", "value": "Active"},
      {"measurement": "Activity", "setting": "Mus musculus", "value": "Active"},
      {"measurement": "Activity", "setting": "MCF7 [32]", "value": 4.71, "unit": "%"}
    ]}
  ]
}
